Assay results from patent US20160015638A1, “STABLE GLUCOKINASE ACTIVATOR COMPOSITIONS” (vTv Therapeutics LLC, priority 2013, published 2016).

What was measured:
[1] = X-ray powder diffraction (XRPD) crystal structure before and after processing; assay type: physicochemical
Source text: The crystal structure of {2-[3-cyclohexyl-3-(trans-4-propoxy-cyclohexyl)-ureido]-thiazol-5-ylsulfanyl}-acetic acid was not changed during nanosizing.
The crystal structure of {2-[3-cyclohexyl-3-(trans-4-propoxy-cyclohexyl)-ureido]-thiazol-5-ylsulfanyl}-acetic acid was not changed during spray drying.

[2] = test system: insulin secretion by the pancreas; conditions: in the presence of glucose; cited from earlier work
[3] = Biopharmaceutics Classification System (BCS) classification; assay type: physicochemical
Source text: As a result, Class IV drugs have poor bioavailability and are usually not well-absorbed while having high variability. Preparing a stable, bioavailable composition containing {2-[3-cyclohexyl-3-(trans-4-propoxy-cyclohexyl)-ureido]-thiazol-5-ylsulfanyl}-acetic acid or a pharmaceutically acceptable salt thereof is, however, not straight forward.

crystal structure (XRPD) ([1]; during nanosizing by microfluidization, lyophilized suspension): not changed
crystal structure (XRPD) ([1]; during spray drying): not changed
Biopharmaceutics Classification System (BCS) class [3]: Class IV
solubility ([3]; BCS classification): low solubility
SMILES: CCCO[C@H]1CC[C@H](N(C(=O)Nc2ncc(SCC(=O)O)s2)C2CCCCC2)CC1 [{2-[3-cyclohexyl-3-(trans-4-propoxy-cyclohexyl)-ureido]-thiazol-5-ylsulfanyl}-acetic acid]
insulin secretion by the pancreas [2]: does not increase insulin secretion
